Measured values as given in US9907737B2, “Composition comprising ferulic acid ethyl ester and aryl alkanol” (L'AIR LIQUIDE, SOCIETE ANONYME POUR L'ETUDE ET …, priority 2013, dated 2018).
Marks after values point to notes of the source that are not given here.

Experiments:
[1] = tested on: C. albicans ATCC: 10231; experiment: Bacterial count reduction test (method 1), C. albicans; format: cell-based, Candida albicans
Description: (§1) Method 1: Bacterial Count Reduction Test
(§2) The aim of this bacterial count reduction test is to determine suitable preservatives and reaction times for samples injected in the laboratory.
(§3) Staphylococcus aureus, Escherichia coli or Pseudomonas aeruginosa, Candida albicans, Aspergillus brasiliensis
A 4 day old Candida albicans culture on SA-agar (II subculture) is washed with 5 ml physiological NaCl and adjusted according to a barium sulphate standard (cf. DVG Guidelines). The titer of the Candida albicans suspension is 10^8 CFU/ml.
(§4) The titres of the respectively produced test organism suspensions are determined by means of a dilution series in physiological NaCl and recorded.
(§5) The samples are displaced with different concentrations of suitable preservatives. For each test bacterium a dilution series is required. The samples are injected individually with the respective test organism suspension and stirred well:
(§6) 25 g samples=0.1 ml bacterial suspension
(§7) 50 g samples=0.2 ml bacterial suspension.
(§8) After the indicated reaction times the samples are firstly stirred homogenously with a sterile glass rod and then spread onto CSA or SA agar. The bacteria samples are spread onto CSA and incubated for 48 hours at 37° C. The mould and yeast samples are spread onto SA agar and incubated for 48 hours at 37° C. (Candida albicans) and at 25° C. (Aspergillus brasiliensis).

[2] = tested on: E. coli ATCC: 11229; experiment: Bacterial count reduction test (method 1), E. coli; format: cell-based, Escherichia coli; settings: o/w cream, initial bacterial count 1.3 × 10^9
Description: as §1, §2, §3
(§9) From a 24-hour CS-angular agar culture (I subculture) of Staphylococcus aureus/Escherichia coli 24-hour CSL-cultures (II subculture) are created. The incubation is carried out at 37° C. The titer of the bacterial suspension is about 10^9 CFU/ml.
as §4, §5, §6, §7, §8

[3] = tested on: S. aureus ATCC: 6538; experiment: Bacterial count reduction test (method 1), S. aureus; format: cell-based, Staphylococcus aureus
Description: as §1, §2, §3, §9, §4, §5, §6, §7, §8

[4] = tested on: P. aeruginosa ATCC: 9027; experiment: Bacterial count reduction test (method 1), P. aeruginosa; format: cell-based, Pseudomonas aeruginosa; settings: o/w-Lotion, initial bacterial count 1.2 × 10^9
Description: as §1, §2, §3, §4, §5, §6, §7, §8

[5] = tested on: A. brasiliensis ATCC: 16404; experiment: Bacterial count reduction test (method 1), A. brasiliensis; format: cell-based, Aspergillus brasiliensis
Description: as §1, §2, §3
A 7 to 14 days old Aspergillus brasiliensis culture on SA agar (25° C.±1° C.) is washed with 5 ml physiological NaCl, filtered by a glass funnel with glass wool and filled with physiological NaCl to 100 ml. The titre of the Aspergillus brasiliensis suspension is about 10^7 CFU/ml.
as §4, §5, §6, §7, §8

[6] = Antimicrobial effect (preliminary work, general statements); settings: preliminary work / general statement
[7] = Water solubility (statement); format: physicochemical
[8] = o/w cream, initial bacterial count 4.1 × 10^8
[9] = o/w-Lotion, initial bacterial count 5.4 × 10^8
[10] = o/w cream, initial bacterial count 1 × 10^9
[11] = o/w-Lotion, initial bacterial count 2.2 × 10^9
[12] = o/w cream, initial bacterial count 1.5 × 10^7
[13] = o/w-Lotion, initial bacterial count 7.7 × 10^7

SMILES	Growth of C. albicans ATCC: 10231 after 24 hours [1, 8]	Growth of C. albicans ATCC: 10231 after 72 hours [1, 8]	Growth of C. albicans ATCC: 10231 after 168 hours [1, 8]	Growth of C. albicans ATCC: 10231 after 336 hours [1, 8]	Growth of C. albicans ATCC: 10231 after 24 hours [1, 9]	Growth of C. albicans ATCC: 10231 after 72 hours [1, 9]	Growth of C. albicans ATCC: 10231 after 168 hours [1, 9]	Growth of C. albicans ATCC: 10231 after 336 hours [1, 9]	Growth of E. coli ATCC: 11229 after 24 hours [2]	Growth of E. coli ATCC: 11229 after 72 hours [2]	Growth of E. coli ATCC: 11229 after 168 hours [2]	Growth of E. coli ATCC: 11229 after 336 hours [2]	Growth of S. aureus ATCC: 6538 after 24 hours [3, 10]	Growth of S. aureus ATCC: 6538 after 72 hours [3, 10]	Growth of S. aureus ATCC: 6538 after 168 hours [3, 10]	Growth of S. aureus ATCC: 6538 after 336 hours [3, 10]	Growth of S. aureus ATCC: 6538 after 24 hours [3, 11]	Growth of A. brasiliensis ATCC: 16404 after 24 hours [5, 12]	Growth of A. brasiliensis ATCC: 16404 after 72 hours [5, 12]	Growth of A. brasiliensis ATCC: 16404 after 168 hours [5, 12]	other results
CCCCC(CC)COC(=O)/C=C/c1ccc(O)c(OC)c1 (centres unmarked) [0.1% ferulic acid-2-ethylhexylester, ferulic acid (2-ethyl hexyl) ester]	++++ (Massive growth About 10^5)	++++ (Massive growth About 10^5)	++++ (Massive growth About 10^5)	++++ (Massive growth About 10^5)	R (Surface covered About 10^6)	R (Surface covered About 10^6)	++++ (Massive growth About 10^5)	++++ (Massive growth About 10^5)	R (Surface covered About 10^6)	++++ (Massive growth About 10^5)	R (Surface covered About 10^6)	R (Surface covered About 10^6)	++++ (Massive growth About 10^5)	++++ (Massive growth About 10^5)	++++ (Massive growth About 10^5)	+++ (Heavy growth About 10^4)	R (Surface covered About 10^6)	R (Surface covered About 10^6)	++++ (Massive growth About 10^5)	++++ (Massive growth About 10^5)	Growth of S. aureus ATCC: 6538 after 72 hours [3, 11]: ++++ (Massive growth About 10^5); Growth of S. aureus ATCC: 6538 after 168 hours [3, 11]: ++++ (Massive growth About 10^5); Growth of S. aureus ATCC: 6538 after 336 hours [3, 11]: ++++ (Massive growth About 10^5); Growth of P. aeruginosa ATCC: 9027 after 24 hours [4]: +++ (Heavy growth About 10^4); Growth of P. aeruginosa ATCC: 9027 after 72 hours [4]: ++++ (Massive growth About 10^5); Growth of P. aeruginosa ATCC: 9027 after 168 hours [4]: ++++ (Massive growth About 10^5); Growth of P. aeruginosa ATCC: 9027 after 336 hours [4]: ++++ (Massive growth About 10^5); Growth of A. brasiliensis ATCC: 16404 after 336 hours [5, 12]: ++++ (Massive growth About 10^5); Growth of A. brasiliensis ATCC: 16404 after 24 hours [5, 13]: ++++ (Massive growth About 10^5); Growth of A. brasiliensis ATCC: 16404 after 72 hours [5, 13]: ++++ (Massive growth About 10^5); Growth of A. brasiliensis ATCC: 16404 after 168 hours [5, 13]: ++++ (Massive growth About 10^5); Growth of A. brasiliensis ATCC: 16404 after 336 hours [5, 13]: ++++ (Massive growth About 10^5)
CCOC(=O)/C=C/c1ccc(O)c(OC)c1 [0.1% ferulic acid-ethyl ester, ferulic acid ethyl ester]	R (Surface covered About 10^6)	R (Surface covered About 10^6)	R (Surface covered About 10^6)	R (Surface covered About 10^6)	++++ (Massive growth About 10^5)	++++ (Massive growth About 10^5)	++++ (Massive growth About 10^5)	++++ (Massive growth About 10^5)	R (Surface covered About 10^6)	R (Surface covered About 10^6)	++++ (Massive growth About 10^5)	R (Surface covered About 10^6)	++++ (Massive growth About 10^5)	R (Surface covered About 10^6)	R (Surface covered About 10^6)	++++ (Massive growth About 10^5)	++++ (Massive growth About 10^5)	++++ (Massive growth About 10^5)	++++ (Massive growth About 10^5)	++++ (Massive growth About 10^5)	Antimicrobial effect, in words [6]: much weaker antimicrobial effect than ferulic acid itself; Water solubility, in words [7]: poor water solubility; Growth of S. aureus ATCC: 6538 after 72 hours [3, 11]: ++++ (Massive growth About 10^5); Growth of S. aureus ATCC: 6538 after 168 hours [3, 11]: +++ (Heavy growth About 10^4); Growth of S. aureus ATCC: 6538 after 336 hours [3, 11]: +++ (Heavy growth About 10^4); Growth of P. aeruginosa ATCC: 9027 after 24 hours [4]: ++++ (Massive growth About 10^5); Growth of P. aeruginosa ATCC: 9027 after 72 hours [4]: ++++ (Massive growth About 10^5); Growth of P. aeruginosa ATCC: 9027 after 168 hours [4]: ++++ (Massive growth About 10^5); Growth of P. aeruginosa ATCC: 9027 after 336 hours [4]: ++++ (Massive growth About 10^5); Growth of A. brasiliensis ATCC: 16404 after 336 hours [5, 12]: +++ (Heavy growth About 10^4); Growth of A. brasiliensis ATCC: 16404 after 24 hours [5, 13]: ++ (Moderate growth About 10^3); Growth of A. brasiliensis ATCC: 16404 after 72 hours [5, 13]: +++ (Heavy growth About 10^4); Growth of A. brasiliensis ATCC: 16404 after 168 hours [5, 13]: +++ (Heavy growth About 10^4); Growth of A. brasiliensis ATCC: 16404 after 336 hours [5, 13]: ++++ (Massive growth About 10^5)
OCCCc1ccccc1 [0.75% 3-phenyl-propanol-1, 3-phenyl-1-propanol]	++++ (Massive growth About 10^5)	++++ (Massive growth About 10^5)	+ (Slight growth About 10^2)	–	–	–	–	–	++ (Moderate growth About 10^3)	–	–	–	++++ (Massive growth About 10^5)	++++ (Massive growth About 10^5)	+++ (Heavy growth About 10^4)	–	–	++++ (Massive growth About 10^5)	+++ (Heavy growth About 10^4)	+ (Slight growth About 10^2)	Antimicrobial effect, in words [6]: good anti-microbial effect
